Results taken from PubChem BioAssay AID256 (DTP/NCI, 2004).
“And” between values parts separate entries of the source, which are not always exact repeats. Equal entries are not always repeated. Toxic doses and inconclusive results are not listed. The calls were made as follows: active = survival T/C of 150% or more; inactive = T/C below 125% in these data.

System: CD2F1 mice, L1210 leukemia ip, survival T/C
Assay: NCI In Vivo Anticancer Drug Screen. Data for tumor model L1210 Leukemia (intraperitoneal) in CD2F1 (CDF1) mice
Settings: higher = longer survival
Outline: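 Implant tumor; dose compound or vehicle; measure endpoint in both groups; report treated divided by control.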

Measured: T/C

CC1OC(O[C@H]2/C=C/C=C/C=C/C=C/C=C/C=C/C=C/[C@H](C)[C@@H](O)[C@@H](C)[C@H](C)OC(=O)C[C@H](O)C[C@H](O)CC[C@@H](O)[C@H](O)C[C@H](O)C[C@]3(O)C[C@H](O)[C@@H](C(=O)O)[C@H](C2)O3)C(O)C(N)C1O (stereo partly drawn)
inactive: endpoint: median survival time, dose: 2.0 mg/kg/injection, schedule: Q01DX009 (ip), vehicle: suspension in saline 97 % of control | endpoint: median survival time, dose: 4.0 mg/kg/injection, schedule: Q01DX009 (ip), vehicle: suspension in saline 102 % of control | endpoint: median survival time, dose: 8.0 mg/kg/injection, schedule: Q01DX009 (ip), vehicle: suspension in saline 102 % of control | endpoint: median survival time, dose: 16.0 mg/kg/injection, schedule: Q01DX009 (ip), vehicle: suspension in saline 97 % of control and 98 % of control | endpoint: median survival time, dose: 18.75 mg/kg/injection, schedule: Q01DX009 (ip), vehicle: suspension in saline 108 % of control | endpoint: median survival time, dose: 32.0 mg/kg/injection, schedule: Q01DX009 (ip), vehicle: suspension in saline 102 % of control and 105 % of control | endpoint: median survival time, dose: 37.5 mg/kg/injection, schedule: Q01DX009 (ip), vehicle: suspension in saline 104 % of control | endpoint: median survival time, dose: 64.0 mg/kg/injection, schedule: Q01DX009 (ip), vehicle: suspension in saline 101 % of control | endpoint: median survival time, dose: 75.0 mg/kg/injection, schedule: Q01DX009 (ip), vehicle: suspension in saline 104 % of control | endpoint: median survival time, dose: 128.0 mg/kg/injection, schedule: Q01DX009 (ip), vehicle: suspension in saline 105 % of control | endpoint: median survival time, dose: 150.0 mg/kg/injection, schedule: Q01DX009 (ip), vehicle: suspension in saline 112 % of control | endpoint: median survival time, dose: 300.0 mg/kg/injection, schedule: Q01DX009 (ip), vehicle: suspension in saline 106 % of control

CC1(C)OC2C(/C=N\O)OC(n3cnc4c(N)ncnc43)C2O1 (stereo not drawn)
inactive: endpoint: median survival time, dose: 12.5 mg/kg/injection, schedule: Q01DX005 (ip), vehicle: distilled water + Tween-80 98 % of control | endpoint: median survival time, dose: 25.0 mg/kg/injection, schedule: Q01DX005 (ip), vehicle: distilled water + Tween-80 90 % of control | endpoint: median survival time, dose: 50.0 mg/kg/injection, schedule: Q01DX005 (ip), vehicle: distilled water + Tween-80 96 % of control | endpoint: median survival time, dose: 100.0 mg/kg/injection, schedule: Q01DX005 (ip), vehicle: distilled water + Tween-80 101 % of control | endpoint: median survival time, dose: 200.0 mg/kg/injection, schedule: Q01DX005 (ip), vehicle: distilled water + Tween-80 101 % of control

COC(=O)c1cc([N+](=O)[O-])cc([N+](=O)[O-])c1Sc1ncnc2nc[nH]c12
inactive: endpoint: mean survival time, dose: 0.63 mg/kg/injection, schedule: Q01DX005 (ip), vehicle: other 100 % of control | endpoint: mean survival time, dose: 1.25 mg/kg/injection, schedule: Q01DX005 (ip), vehicle: other 100 % of control | endpoint: mean survival time, dose: 2.5 mg/kg/injection, schedule: Q01DX005 (ip), vehicle: other 107 % of control | endpoint: mean survival time, dose: 5.0 mg/kg/injection, schedule: Q01DX005 (ip), vehicle: other 112 % of control | endpoint: mean survival time, dose: 10.0 mg/kg/injection, schedule: Q01DX005 (ip), vehicle: other 112 % of control | endpoint: mean survival time, dose: 40.0 mg/kg/injection, schedule: Q01DX005 (ip), vehicle: other 95 % of control

OC(Cc1cc(CC(O)(C(F)(F)F)C(F)(F)F)ncn1)(C(F)(F)F)C(F)(F)F
inactive: endpoint: mean survival time, dose: 100.0 mg/kg/injection, schedule: Q04DX003 (ip), vehicle: saline with Tween-80 97 % of control | endpoint: mean survival time, dose: 200.0 mg/kg/injection, schedule: Q04DX003 (ip), vehicle: saline with Tween-80 93 % of control | endpoint: mean survival time, dose: 400.0 mg/kg/injection, schedule: Q04DX003 (ip), vehicle: saline with Tween-80 91 % of control

CC(C)[C@]12O[C@H]1[C@@H]1O[C@]13[C@]1(O[C@H]1C[C@H]1C4=C(CC[C@@]13C)C(=O)OC4)[C@@H]2O
inactive: endpoint: mean survival time, dose: 0.8 micrograms/kg/injection, schedule: Q01DX009 (ip), vehicle: saline + alcohol 96 % of control | endpoint: mean survival time, dose: 1.6 micrograms/kg/injection, schedule: Q01DX009 (ip), vehicle: saline + alcohol 91 % of control | endpoint: mean survival time, dose: 6.3 micrograms/kg/injection, schedule: Q01DX009 (ip), vehicle: saline + alcohol 93 % of control | endpoint: mean survival time, dose: 12.5 micrograms/kg/injection, schedule: Q01DX009 (ip), vehicle: saline + alcohol 95 % of control | endpoint: mean survival time, dose: 25.0 micrograms/kg/injection, schedule: Q01DX009 (ip), vehicle: saline + alcohol 96 % of control | endpoint: mean survival time, dose: 50.0 micrograms/kg/injection, schedule: Q01DX009 (ip), vehicle: saline + alcohol 90 % of control | endpoint: mean survival time, dose: 100.0 micrograms/kg/injection, schedule: Q01DX009 (ip), vehicle: saline + alcohol 110 % of control | endpoint: median survival time, dose: 0.02 mg/kg/injection, schedule: Q03HX024 (ip), vehicle: saline + alcohol 111 % of control | endpoint: median survival time, dose: 0.03 mg/kg/injection, schedule: Q03HX024 (ip), vehicle: saline + alcohol 120 % of control | endpoint: median survival time, dose: 0.06 mg/kg/injection, schedule: Q01DX009 (ip), vehicle: saline + alcohol 104 % of control | endpoint: median survival time, dose: 0.06 mg/kg/injection, schedule: Q01DX009 (sc), vehicle: saline + alcohol 112 % of control | endpoint: median survival time, dose: 0.13 mg/kg/injection, schedule: Q01DX009 (ip), vehicle: saline + alcohol 120 % of control | endpoint: median survival time, dose: 0.13 mg/kg/injection, schedule: Q01DX009 (sc), vehicle: saline + alcohol 104 % of control | endpoint: median survival time, dose: 0.25 mg/kg/injection, schedule: Q04DX003 (ip), vehicle: saline + alcohol 112 % of control | endpoint: median survival time, dose: 0.25 mg/kg/injection, schedule: Q08DX002 (ip), vehicle: saline + alcohol 107 % of control | endpoint: median survival time, dose: 0.5 mg/kg/injection, schedule: Q01DX001 (sc), vehicle: saline + alcohol 105 % of control | endpoint: median survival time, dose: 0.5 mg/kg/injection, schedule: Q04DX003 (ip), vehicle: saline + alcohol 120 % of control | endpoint: median survival time, dose: 0.5 mg/kg/injection, schedule: Q08DX002 (ip), vehicle: saline + alcohol 115 % of control | endpoint: median survival time, dose: 1.0 mg/kg/injection, schedule: Q01DX001 (sc), vehicle: saline + alcohol 107 % of control | endpoint: median survival time, dose: 1.0 mg/kg/injection, schedule: Q04DX003 (ip), vehicle: saline + alcohol 110 % of control | endpoint: median survival time, dose: 1.0 mg/kg/injection, schedule: Q08DX002 (ip), vehicle: saline + alcohol 116 % of control

O=C(/C=C\c1ccc(Cl)cc1)c1ccccc1
inactive: endpoint: mean survival time, dose: 100.0 mg/kg/injection, schedule: Q01DX001 (ip), vehicle: saline with Tween-80 100 % of control | endpoint: mean survival time, dose: 200.0 mg/kg/injection, schedule: Q01DX001 (ip), vehicle: saline with Tween-80 96 % of control | endpoint: mean survival time, dose: 400.0 mg/kg/injection, schedule: Q01DX001 (ip), vehicle: saline with Tween-80 96 % of control

CCN(C(=O)C(F)(F)F)C(C)(C)C(SSSC(c1ccc(Cl)cc1)C(C)(C)N(CC)C(=O)C(F)(F)F)c1ccc(Cl)cc1 (stereo not drawn)
inactive: endpoint: mean survival time, dose: 100.0 mg/kg/injection, schedule: Q04DX003 (ip), vehicle: saline 103 % of control | endpoint: mean survival time, dose: 200.0 mg/kg/injection, schedule: Q04DX003 (ip), vehicle: saline 105 % of control | endpoint: mean survival time, dose: 400.0 mg/kg/injection, schedule: Q04DX003 (ip), vehicle: saline 86 % of control
